Target: T1, human IDO1 (Homo sapiens, UniProt P14902)
T1 construct: expressed in transfected cells
Assay: HEK Human IDO-1 inhibition assay (kynurenine readout, Ehrlich reagent, absorbance 490 nm)
Type: cell-based
Conditions: human IDO1/HEK293 cells, incubated 20 hours with compound; 500 nM reference standard = 100% inhibition
Description: HEK293 cells were transfected with a pCDNA-based mammalian expression vector harboring human IDO1 cDNA (NM 002164.2) by electroporation. They were cultured in medium (DMEM with 10% FBS) containing 1 mg/ml G418 for two weeks. Clones of HEK293 cells that stably expressed human IDO1 protein were selected and expanded for IDO inhibition assay.
The human IDO1/HEK293 cells were seeded at 10,000 cells per 50 uL per well with RPMI/phenol red free media contains 10% FBS in a 384-well black wall clear bottom tissue culture plate (Matrix Technologies LLC) 100 nL of certain concentration of compound was then added to each well using ECHO liquid handling systems. The cells were incubated for 20 hours in 37° C. incubator with 5% CO2.
The compound treatments were stopped by adding Trichloroacetic Acid (Sigma-Aldrich) to a final concentration at 0.2%. The cell plate was further incubated at 50° C. for 30 minute. The equal volume supernatant (20 uL) and 0.2% (w/v) Ehrlich reagent (4-dimethylaminobenzaldehyde, Sigma-Aldrich) in glacial acetic acid were mixed in a new clear bottom 384-well plate. This plate was then incubated at room temperature for 30 minute. The absorbance at 490 nm was measured on Envision plate reader. Compound IC50 values were calculated using the counts of 500 nM of a reference standard treatment as one hundred percent inhibition, and counts of no compound but DMSO treatment as zero percent inhibition.

T1 sequence (P14902 whole entry): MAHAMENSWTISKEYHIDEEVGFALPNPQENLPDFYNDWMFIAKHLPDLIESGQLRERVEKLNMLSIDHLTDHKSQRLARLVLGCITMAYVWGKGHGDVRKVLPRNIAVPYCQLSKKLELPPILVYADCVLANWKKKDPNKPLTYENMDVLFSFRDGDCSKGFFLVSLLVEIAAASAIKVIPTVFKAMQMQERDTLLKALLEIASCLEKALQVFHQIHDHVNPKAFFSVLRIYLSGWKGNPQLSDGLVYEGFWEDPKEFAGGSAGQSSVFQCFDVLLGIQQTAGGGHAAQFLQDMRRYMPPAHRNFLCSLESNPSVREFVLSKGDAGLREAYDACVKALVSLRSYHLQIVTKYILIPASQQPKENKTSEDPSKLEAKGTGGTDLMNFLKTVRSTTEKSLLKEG

| IC50 [nM] | Compound |
| --- | --- |
| ≥ 100 | CC(C)CN(c1ccc(OC(C)C(=O)O)cc1Nc1nc2ccccc2o1)C1CCCCC1 (racemic) [Example 62, (±)-2-(3-(benzo[d]oxazol-2-ylamino)-4-(cyclohexyl (isobutyl)amino)phenoxy)propanoic acid] |
| ≥ 100 | COc1cnc(Nc2cc(OC(C)C(=O)O)ccc2N(CC(C)C)C2CCCCC2)nc1 (racemic) [Example 63, (±)-2-(4-(cyclohexyl(isobutyl)amino)-3-((5-methoxypyrimidin-2-yl)amino)phenoxy)propanoic acid] |
| < 5 | Cc1cc(NC(=O)Nc2cc(OC(C)C(=O)NS(=O)(=O)C3CC3)ccc2N(CC(C)C)C2CCCCC2)on1 (racemic) [Example 68] |
| < 5 | Cc1ccc(NC(=O)Nc2cc(OC(C)C(=O)NS(=O)(=O)C3CC3)ccc2N(CC(C)C)C2CCCCC2)cc1 (racemic) [Example 69, (±)-2-(4-(cyclohexyl(isobutyl)amino)-3-(3-(p-tolyl)ureido)phenoxy)-N-(cyclopropylsulfonyl)propanamide] |
| < 5 | CC(C)CN(c1ccc(OC(C)C(=O)NS(=O)(=O)C2CC2)cc1NC(=O)Nc1ccc(Cl)cc1F)C1CCCCC1 (racemic) [Example 70, (±)-2-(3-(3-(4-chloro-2-fluorophenyl)ureido)-4-(cyclohexyl(isobutyl)amino)phenoxy)-N-(cyclopropylsulfonyl) propanamide] |
| < 100 | CC(C)CN(c1ccc(OC(C)C(=O)O)cc1NC(=O)Cc1ccc(F)cc1F)C1CCCCC1 (racemic) [Example 71, 2-(4-(cyclohexyl(isobutyl)amino)-3-(2-(2,4-difluorophenyl)acet-amido)phenoxy)propanoic acid] |
| < 100 | CC(C)CN(c1ccc(OC(C)C(=O)O)cc1NC(=O)Cc1ccc(Cl)c(F)c1)C1CCCCC1 (racemic) [Example 72, 2-(3-(2-(4-chloro-3-fluorophenyl)acetamido)-4-(cyclohexyl (isobutyl)amino)phenoxy)prop-anoic acid] |
| < 100 | CC(C)CN(c1ccc(OC(C)C(=O)O)cc1NC(=O)Cc1ccc(Cl)cc1F)C1CCCCC1 (racemic) [Example 73] |
| ≥ 100 | CC(C)CN(c1ccc(OC(C)C(=O)O)cc1NC(=O)Cc1ccc(F)cc1)C1CCCCC1 (racemic) [Example 74, 2-(4-(cyclohexyl(isobutyl)amino)-3-(2-(4-fluorophenyl)acet-amido)phenoxy)propanoic acid] |
| < 100 | Cc1ccc(CC(=O)Nc2cc(OC(C)C(=O)O)ccc2N(CC(C)C)C2CCCCC2)cc1 (racemic) [Example 75, 2-(4-(cyclohexyl(isobutyl)amino)-3-(2-(p-tolyl)acetamido)phenoxy)propanoic acid] |
| < 100 | Cc1ccc(CC(=O)Nc2cc(OC(C)C(=O)O)ccc2N(CC(C)C)C2CCCCC2)c(F)c1 (racemic) [Example 76, 2-(4-(cyclohexyl(isobutyl)amino)-3-(2-(2-fluoro-4-methylphenyl)acetamido)phenoxy)propanoic acid] |
| < 100 | CC(C)CN(c1ccc(OC(C)C(=O)NS(=O)(=O)C2CC2)cc1NC(=O)Cc1ccc(Cl)cc1F)C1CCCCC1 (racemic) [Example 77, (±)-2-(3-(2-(4-chloro-2-fluorophenyl)acetamido)-4-(cyclohexyl(isobutyl)amino)phenoxy)-N-(cyclopropylsulfonyl) propanamide] |
| < 100 | Cc1ccc(CC(=O)Nc2cc(OC(C)C(=O)NS(=O)(=O)C3CC3)ccc2N(CC(C)C)C2CCCCC2)cc1 (racemic) [Example 78, (±)-2-(4-(cyclohexyl(isobutyl)amino)-3-(2-(p-tolyl)acetamido)phenoxy)-N-(cyclopropylsulfonyl)propanamide] |
| ≥ 100 | CC(C)CN(c1ccc(OC(C)C(=O)NS(=O)(=O)C2CC2)cc1NC(=O)Cc1ccc(Cl)c(F)c1)C1CCCCC1 (racemic) [Example 79, (±)-2-(3-(2-(4-chloro-3-fluorophenyl)acetamido)-4-(cyclohexyl(isobutyl)amino)phenoxy)-N-(cyclopropylsulfonyl) propanamide] |
| < 5 | CC(C)CN(c1ccc(OC(C(=O)O)C(C)C)cc1NC(=O)Nc1ccc(Cl)cc1F)C1CCCCC1 (racemic) [Example 83] |
| < 100 | Cc1ccc(NC(=O)Nc2cc(OC(C(=O)O)C(C)C)ccc2N(CC(C)C)C2CCCCC2)cc1 (racemic) [Example 84, (±)-2-(4-(cyclohexyl(isobutyl)amino)-3-(3-(p-tolyl)ureido)phenoxy)-3-methylbutanoic acid] |
| ≥ 100 | C=C(C)CN(c1ccc(OC(C)C(=O)O)cc1NC(=O)Nc1ccc(C)cc1)C1CCOCC1 (racemic) [Example 140, (+/−)-2-(4-((2-methylallyl)(tetrahydro-2H-pyran-4-yl)amino)-3-(3-(p-tolyl)ureido)phenoxy)propanoic acid] |

| IC50 [nM] | Compound |
| --- | --- |
| < 5 | COc1ccc(NC(=O)Nc2cc(OC(C)C(=O)O)ccc2N(CC(C)C)C2CCCCC2)c(F)c1 (racemic) [racemic 64] |
| < 5 | Cc1ccc(NC(=O)Nc2cc(OC(C)C(=O)O)ccc2N(CC(C)C)C2CCCCC2)c(F)c1 (racemic) [racemic 65] |
| ≥ 100 | CC(C)CN(c1ccc(OC(C)C(=O)O)cc1NC(=O)Nc1ccc(C#N)cc1)C1CCCCC1 (racemic) [racemic 66] |
| < 5 | CCOC(=O)C(C)Oc1ccc(N(CC(C)C)C2CCCCC2)c(NC(=O)Nc2ccc(Cl)cc2F)c1 (racemic) [racemic 67] |
| < 5 | CC(C)CN(c1cc(F)c(OC(C)C(=O)O)cc1NC(=O)Nc1ccc(Cl)cc1F)C1CCCCC1 (racemic) [racemic 136] |
| ≥ 100 | CC(C)CN(c1ccc(OC(C)C(=O)O)cc1NC(=O)Nc1cncnc1)C1CCCCC1 (single isomer, unassigned) [Example 58-1, 2-(4-(cyclohexyl(isobutyl)amino)-3-(3-(pyrimidin-5-yl)ureido)phenoxy)propanoic acid] |
| < 100 | CC(C)CN(c1ccc(OC(C)C(=O)O)cc1NC(=O)Nc1cncnc1)C1CCCCC1 (single isomer, unassigned) [Example 58-2, 2-(4-(cyclohexyl(isobutyl)amino)-3-(3-(pyrimidin-5-yl)ureido)phenoxy)propanoic acid] |
| < 5 | CC(C)CN(c1ccc(OC(C)C(=O)O)cc1NC(=O)Nc1ccccc1F)C1CCCCC1 (single isomer, unassigned) [Example 59-1, 2-(4-(cyclohexyl(isobutyl)amino)-3-(3-(2-fluoro-phenyl)ureido)phenoxy)propanoic acid] |
| < 5 | Cc1ccc(NC(=O)Nc2cc(OC(C)C(=O)O)ccc2N(CC(C)C)C2CCCCC2)cc1 (single isomer, unassigned) [Example 60-1, 2-(4-(cyclohexyl(isobutyl)amino)-3-(3-(p-tolyl)ureido)phenoxy)propanoic acid] |
| < 5 | CC(C)CN(c1ccc(OC(C)C(=O)O)cc1NC(=O)Nc1ccc(Cl)cc1F)C1CCCCC1 (single isomer, unassigned) [Example 61-1, 2-(3-(3-(4-chloro-2-fluorophenyl)ureido)-4-(cyclo-hexyl(isobutyl)amino)phenoxy)propanoic acid] |
| < 5 | CC(C)CN(c1ccc(OC(C)C(=O)O)cc1NC(=O)Nc1ccc(Cl)cc1F)C1CCCCC1 (single isomer, unassigned) [Example 61-2, 2-(3-(3-(4-chloro-2-fluorophenyl)ureido)-4-(cyclo-hexyl(isobutyl)amino)phenoxy)propanoic acid] |
| < 100 | COc1ccc(NC(=O)Nc2cc(OC(C)C(=O)O)ccc2N(CC(C)C)C2CCCCC2)c(F)c1 (single isomer, unassigned) [Example 64-1, 2-(4-(cyclohexyl(isobutyl)amino)-3-(3-(2-fluoro-4-methoxyphenyl)ureido)phenoxy)propanoic acid] |
| < 5 | COc1ccc(NC(=O)Nc2cc(OC(C)C(=O)O)ccc2N(CC(C)C)C2CCCCC2)c(F)c1 (single isomer, unassigned) [Example 64-2, 2-(4-(cyclohexyl(isobutyl)amino)-3-(3-(2-fluoro-4-methoxyphenyl)ureido)phenoxy)propanoic acid] |
| < 100 | Cc1ccc(NC(=O)Nc2cc(OC(C)C(=O)O)ccc2N(CC(C)C)C2CCCCC2)c(F)c1 (single isomer, unassigned) [Example 65-1, 2-(4-(cyclohexyl(isobutyl)amino)-3-(3-(2-fluoro-4-methylphenyl)ureido)phenoxy)propanoic acid] |
| < 5 | Cc1ccc(NC(=O)Nc2cc(OC(C)C(=O)O)ccc2N(CC(C)C)C2CCCCC2)c(F)c1 (single isomer, unassigned) [Example 65-2, 2-(4-(cyclohexyl(isobutyl)amino)-3-(3-(2-fluoro-4-methylphenyl)ureido)phenoxy)propanoic acid] |
| < 100 | CC(C)CN(c1ccc(OC(C)C(=O)O)cc1NC(=O)Nc1ccc(C#N)cc1)C1CCCCC1 (single isomer, unassigned) [Example 66-1, 2-(3-(3-(4-cyanophenyl)ureido)-4-(cyclohexyl(isobutyl)amino)phenoxy)propanoic acid] |
| < 5 | CC(C)CN(c1ccc(OC(C)C(=O)O)cc1NC(=O)Nc1ccc(C#N)cc1)C1CCCCC1 (single isomer, unassigned) [Example 66-2, 2-(3-(3-(4-cyanophenyl)ureido)-4-(cyclohexyl(isobutyl)amino)phenoxy)propanoic acid] |

— patent publication US10689331B2, “IDO inhibitors” (Bristol-Myers Squibb Company, priority 2015, dated 2020)
